Data taken from patent publication US7388111B2, “Non-nucleoside reverse transcriptase inhibitors” (Roche Palo Alto LLC, priority 2005, dated 2008).
pIC50: −log10 of the molar value.

What follows are compounds tested against HIV-1 RT (Human immunodeficiency virus type 1 group M subtype B, UniProt P03366) (assay: HIV Reverse Transcriptase Assay: Inhibitor IC50 Determination). Details: purified recombinant enzyme, poly(rA)/oligo(dT)16 template-primer, 37° C. 30 min.
Format: biochemical
Experimental: HIV Reverse Transcriptase Assay: Inhibitor IC50 Determination
HIV-1 RT assay was carried out in 96-well Millipore MultiScreen MADVNOB50 plates using purified recombinant enzyme and a poly(rA)/oligo(dT)16 template-primer in a total volume of 50 μL. The assay constituents were 50 mM Tris/HCl, 50 mM NaCl, 1 mM EDTA, 6 mM MgCl2, 5 μM dTTP, 0.15 μCi [^3H] dTTP, 5 μg/ml poly (rA) pre annealed to 2.5 μg/ml oligo (dT)16 and a range of inhibitor concentrations in a final concentration of 10% DMSO. Reactions were initiated by adding 4 nM HIV-1 RT and after incubation at 37° C. for 30 min, they were stopped by the addition of 50 μl ice cold 20% TCA and allowed to precipitate at 4° C. for 30 min. The precipitates were collected by applying vacuum to the plate and sequentially washing with 3×200 μl of 10% TCA and 2×200 μl 70% ethanol. Finally, the plates were dried and radioactivity counted in a Packard TopCounter after the addition of 25 μl scintillation fluid per well. IC50's were calculated by plotting % inhibition versus log10 inhibitor concentrations.

Point of comparison: N#Cc1cc(Oc2ccc(CC(=O)Nc3ccc(S(N)(=O)=O)cc3Cl)cc2Br)cc(C(F)F)c1 [Compound I-63, 2-[3-Bromo-4-(3-cyano-5-difluoromethyl-phenoxy)-phenyl]-N-(2-chloro-4-sulfamoyl-phenyl)-acetamide], pIC50 7.27. Against it:
- Cc1c(CC(=O)Nc2ccc(S(N)(=O)=O)cc2)ccc(Oc2cc(Cl)cc(C#N)c2)c1C [Compound I-65, 2-[4-(3-Chloro-5-cyano-phenoxy)-2,3-dimethyl-phenyl]-N-(4-sulfamoyl-phenyl)-acetamide] — 1.76 log units lower, 5.51
- Cc1cc(C#N)ccc1Oc1ccc(CC(=O)Nc2ccc(S(N)(=O)=O)cc2Cl)c(C)c1C [Compound I-25, N-(2-Chloro-4-sulfamoyl-phenyl)-2-[4-(4-cyano-2-methyl-phenoxy)-2,3-dimethyl-phenyl]-acetamide] — 0.47 log units lower, 6.80
- Cc1cc(OCCCS(N)(=O)=O)ccc1NC(=O)Cc1ccc(Oc2cc(Cl)ccc2Br)c(Cl)c1 [Compound I-5, 2-[4-(2-Bromo-5-chloro-phenoxy)-3-chloro-phenyl]-N-[2-methyl-4-(3-sulfamoyl-propoxy)-phenyl]-acetamide] — 0.44 log units lower, 6.83
- COc1cc(CC(=O)Nc2ccc(S(N)(=O)=O)cc2Br)ccc1Oc1cc(Cl)cc(C#N)c1 [Compound I-53, N-(2-Bromo-4-sulfamoyl-phenyl)-2-[4-(3-chloro-5-cyano-phenoxy)-3-methoxy-phenyl]-acetamide] — 0.87 log units lower, 6.40
- COc1cc(CC(=O)Nc2ccc(S(N)(=O)=O)cc2Cl)ccc1Oc1cc(Cl)cc(C#N)c1 [Compound I-52, 2-[4-(3-Chloro-5-cyano-phenoxy)-3-methoxy-phenyl]-N-(2-chloro-4-sulfamoyl-phenyl)-acetamide] — 0.98 log units lower, 6.29
- N#Cc1cc(Cl)cc(Oc2ccc(CC(=O)Nc3ccc(S(N)(=O)=O)cc3Cl)cc2Cl)c1 [Compound I-39, 2-[3-Chloro-4-(3-chloro-5-cyano-phenoxy)-phenyl]-N-(2-chloro-4-sulfamoyl-phenyl)-acetamide] — 0.24 log units lower, 7.03
- COc1cc(CC(=O)Nc2ccc(S(N)(=O)=O)cc2C)ccc1Oc1cc(Cl)cc(C#N)c1 [Compound I-51, 2-[4-(3-Chloro-5-cyano-phenoxy)-3-methoxy-phenyl]-N-(2-methyl-4-sulfamoyl-phenyl)-acetamide] — 1.53 log units lower, 5.74
- Cc1cc(S(N)(=O)=O)ccc1NC(=O)Cc1ccc(Oc2c(Cl)cccc2Cl)c(Cl)c1 [Compound I-41, 2-[3-Chloro-4-(2,6-dichloro-phenoxy)-phenyl]-N-(2-methyl-4-sulfamoyl-phenyl)-acetamide] — 0.48 log units lower, 6.79
- N#Cc1ccc(Cl)c(Oc2ccc(CC(=O)Nc3ccc(S(N)(=O)=O)cc3Cl)cc2Cl)c1 [Compound I-36, 2-[3-Chloro-4-(2-chloro-5-cyano-phenoxy)-phenyl]-N-(2-chloro-4-sulfamoyl-phenyl)-acetamide] — 0.29 log units lower, 6.98
- N#Cc1cc(Cl)cc(Oc2ccc(CC(=O)Nc3ccc(S(N)(=O)=O)cc3)cc2Br)c1 [Compound I-46, 2-[3-Bromo-4-(3-chloro-5-cyano-phenoxy)-phenyl]-N-(4-sulfamoyl-phenyl)-acetamide] — 2.05 log units lower, 5.22
- NS(=O)(=O)c1ccc(NC(=O)Cc2ccc(Oc3c(Cl)cccc3Cl)c(Cl)c2)c(Cl)c1 [Compound I-45, 2-[3-Chloro-4-(2,6-dichloro-phenoxy)-phenyl]-N-(2-chloro-4-sulfamoyl-phenyl)-acetamide] — within 0.2 log units, 7.20
- N#Cc1cc(C#N)cc(Oc2ccc(CC(=O)Nc3ccccc3Br)cc2Cl)c1 [Compound I-20, N-(2-Bromo-phenyl)-2-[3-chloro-4-(3,5-dicyano-phenoxy)-phenyl]-acetamide] — 1.65 log units lower, 5.62
- COc1cc(CC(=O)Nc2ccc(S(N)(=O)=O)cc2C)ccc1Oc1ccc(C#N)cc1C [Compound I-54, 2-[4-(4-Cyano-2-methyl-phenoxy)-3-methoxy-phenyl]-N-(2-methyl-4-sulfamoyl-phenyl)-acetamide] — 1.66 log units lower, 5.61
- COc1cc(CC(=O)Nc2ccc(S(N)(=O)=O)cc2Br)ccc1Oc1ccc(C#N)cc1C [Compound I-56, N-(2-Bromo-4-sulfamoyl-phenyl)-2-[4-(4-cyano-2-methyl-phenoxy)-3-methoxy-phenyl]-acetamide] — 0.72 log units lower, 6.55
- Cc1c(CC(=O)Nc2ccc(S(N)(=O)=O)cc2Br)ccc(Oc2cc(Cl)cc(C#N)c2)c1C [Compound I-33, N-(2-Bromo-4-sulfamoyl-phenyl)-2-[4-(3-chloro-5-cyano-phenoxy)-2,3-dimethyl-phenyl]-acetamide] — 0.20 log units lower, 7.07
- O=C(Cc1ccc(Oc2cc(Cl)ccc2Br)c(Cl)c1)Nc1ccccc1F [Compound I-8, 2-[4-(2-Bromo-5-chloro-phenoxy)-3-chloro-phenyl]-N-(2-fluoro-phenyl)-acetamide] — 2.03 log units lower, 5.24
- Cc1cc(C#N)ccc1Oc1ccc(CC(=O)Nc2ccc(S(N)(=O)=O)cc2Cl)cc1Cl [Compound I-44, 2-[3-Chloro-4-(4-cyano-2-methyl-phenoxy)-phenyl]-N-(2-chloro-4-sulfamoyl-phenyl)-acetamide] — within 0.2 log units, 7.15
- Cc1cc(S(N)(=O)=O)ccc1NC(=O)Cc1ccc(Oc2cc(Cl)cc(C#N)c2)c(Cl)c1 [Compound I-38, 2-[3-Chloro-4-(3-chloro-5-cyano-phenoxy)-phenyl]-N-(2-methyl-4-sulfamoyl-phenyl)-acetamide] — 1.18 log units lower, 6.09
- Cc1ccccc1NC(=O)Cc1ccc(Oc2cc(Cl)ccc2Br)c(Cl)c1 [Compound I-7, 2-[4-(2-Bromo-5-chloro-phenoxy)-3-chloro-phenyl]-N-o-tolyl-acetamide] — 1.19 log units lower, 6.08
- Cc1cc(S(N)(=O)=O)ccc1NC(=O)Cc1ccc(Oc2cc(C#N)cc(C(F)F)c2)c(Br)c1 [Compound I-62, 2-[3-Bromo-4-(3-cyano-5-difluoromethyl-phenoxy)-phenyl]-N-(2-methyl-4-sulfamoyl-phenyl)-acetamide] — 0.34 log units lower, 6.93
- Cc1cc(S(N)(=O)=O)ccc1NC(=O)Cc1ccc(Oc2ccc(C#N)cc2C)c(C)c1C [Compound I-23, 2-[4-(4-Cyano-2-methyl-phenoxy)-2,3-dimethyl-phenyl]-N-(2-methyl-4-sulfamoyl-phenyl)-acetamide] — 0.67 log units lower, 6.60
- N#Cc1cc(C#N)cc(Oc2ccc(CC(=O)Nc3ccc(S(N)(=O)=O)cc3Br)cc2Cl)c1 [Compound I-21, N-(2-Bromo-4-sulfamoyl-phenyl)-2-[3-chloro-4-(3,5-dicyano-phenoxy)-phenyl]-acetamide] — 0.47 log units lower, 6.80
- COc1cc(CC(=O)Nc2ccc(S(N)(=O)=O)cc2Cl)ccc1Oc1ccc(C#N)cc1C [Compound I-55, N-(2-Chloro-4-sulfamoyl-phenyl)-2-[4-(4-cyano-2-methyl-phenoxy)-3-methoxy-phenyl]-acetamide] — 0.89 log units lower, 6.38
- Cc1cc(S(N)(=O)=O)ccc1NC(=O)Cc1ccc(Oc2ccc(C#N)cc2C)c(Cl)c1 [Compound I-43, 2-[3-Chloro-4-(4-cyano-2-methyl-phenoxy)-phenyl]-N-(2-methyl-4-sulfamoyl-phenyl)-acetamide] — 1.11 log units lower, 6.16
- N#Cc1cc(Oc2ccc(CC(=O)Nc3ccc(S(N)(=O)=O)cc3Br)cc2Br)cc(C(F)F)c1 [Compound I-64, 2-[3-Bromo-4-(3-cyano-5-difluoromethyl-phenoxy)-phenyl]-N-(2-bromo-4-sulfamoyl-phenyl)-acetamide] — within 0.2 log units, 7.21
- Cc1cc(S(N)(=O)=O)ccc1NC(=O)Cc1ccc(Oc2cc(Cl)cc(C#N)c2)c(C)c1C [Compound I-66, 2-[4-(3-Chloro-5-cyano-phenoxy)-2,3-dimethyl-phenyl]-N-(2-methyl-4-sulfamoyl-phenyl)-acetamide] — within 0.2 log units, 7.09
